20 molecules from patent US20260226076A1, “FUSED MULTICYCLIC COMPOUNDS AND THEIR USE AS PARP1 INHIBITORS” (LAEKNA THERAPEUTICS SHANGHAI CO., LTD., priority 2022, published 2026) can be followed below.

For one data set, the target named is PARP1 (Homo sapiens, UniProt P09874). In words: PARP1-DNA enzymatic trapping assay. The class given is biochemical. The following applies: 10 nM PARP1, 5 nM DNA probe, 2 mM NAD+, fluorescence polarization read at 30 minutes. As to the method: Enzymatic trapping assay is to measure the dissociation process of PARP1 from fluorescein-labeled DNA during the enzymatic activity. Assay was conducted at a total 10 μL of reaction volume, including 10 nM PARP1 and 5 nM DNA probe in the binding buffer (50 mM Tris-HCl pH 8.0, 50 mM NaCl, 1 mM MgCl2, 0.1 mM EDTA, and 0.01% IGEPAL), and was commenced by adding a final concentration of 2 mM NAD+ substrate.
PARP1, sequence (P09874 whole entry): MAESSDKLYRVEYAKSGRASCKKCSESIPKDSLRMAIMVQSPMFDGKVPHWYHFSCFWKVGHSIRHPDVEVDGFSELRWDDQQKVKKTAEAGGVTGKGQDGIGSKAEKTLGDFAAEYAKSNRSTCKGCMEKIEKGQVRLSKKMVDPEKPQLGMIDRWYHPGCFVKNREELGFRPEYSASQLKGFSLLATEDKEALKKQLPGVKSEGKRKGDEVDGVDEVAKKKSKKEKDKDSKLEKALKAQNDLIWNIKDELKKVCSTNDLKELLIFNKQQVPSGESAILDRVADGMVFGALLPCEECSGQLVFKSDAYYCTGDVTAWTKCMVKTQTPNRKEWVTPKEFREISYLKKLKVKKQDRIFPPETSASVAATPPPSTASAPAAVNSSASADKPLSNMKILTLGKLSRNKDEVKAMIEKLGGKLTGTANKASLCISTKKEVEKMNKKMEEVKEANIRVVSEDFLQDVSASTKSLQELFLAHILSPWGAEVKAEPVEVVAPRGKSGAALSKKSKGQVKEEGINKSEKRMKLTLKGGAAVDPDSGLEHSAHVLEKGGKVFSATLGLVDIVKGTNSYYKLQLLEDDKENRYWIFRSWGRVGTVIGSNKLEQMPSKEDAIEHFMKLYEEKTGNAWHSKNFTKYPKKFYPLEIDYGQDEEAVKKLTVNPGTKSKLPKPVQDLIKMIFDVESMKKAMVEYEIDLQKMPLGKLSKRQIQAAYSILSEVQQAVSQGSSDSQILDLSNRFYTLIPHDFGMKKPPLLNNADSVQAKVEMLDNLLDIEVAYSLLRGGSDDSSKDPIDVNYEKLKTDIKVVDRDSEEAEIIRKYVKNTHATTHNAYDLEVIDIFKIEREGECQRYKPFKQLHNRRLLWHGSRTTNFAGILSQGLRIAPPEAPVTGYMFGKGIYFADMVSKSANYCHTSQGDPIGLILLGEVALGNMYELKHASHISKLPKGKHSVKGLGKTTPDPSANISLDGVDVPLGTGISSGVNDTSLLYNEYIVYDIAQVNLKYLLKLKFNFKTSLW
PARP1 Poly-ADP ribosylation (PARylation) inhibitory assay was conducted with compounds dissolved in DMSO at a starting concentration of 5 μM. Dissolved compounds were added to 384-well microplate and premixed with PARPI enzyme and DNA probe for 20 minutes incubation. Enzymatic reactions were started by adding NAD+ to mixture, and each well was read at 30 minutes by microplate reader (VICTOR Nivo®, PerkinElmer) to detect the fluorescence polarization signal at 480 nm excitation/530 nm dual emission.
All measured IC50 values were calculated using four parameters dose-response inhibition model in GraphPad Prism 8.0.2 (La Jolla, California, USA, www.graphpad.com).

The subject of a further data set is MDA-MB-436 cells. In words: Cell proliferation assay (MDA-MB-436). The class given is cell-based. The following applies: Homo sapiens, MDA-MB-436, 168 h, at least 7 days, Cell-Titer Glo, read-out: MDA-MB-436 anti-proliferation assay. As to the method:
(§1) For PARPi sensitivity, exponentially growing MDA-MB-436 and DLD1 BRCA2^−/− cells were seed in 96 or 384-well plates at very low density with the goal of not splitting for at least 7 days (typically 0.3k-1.2k cells/well). Cells were plated on […] and treated with DMSO or increasing concentrations of PARP1 inhibitors on Day 0. At the end of the experiment, cell viability was estimated using Cell-Titer Glo (Promega).

The next data set deals with DLD1 BRCA2−/− cells. In words: Cell proliferation assay (DLD1 BRCA2−/−). The following applies: Homo sapiens, DLD-1, 168 h, at least 7 days, Cell-Titer Glo, read-out: DLD1 BRCA2−/− anti-proliferation assay. The data set is classed as cell-based. The protocol:
as §1

In another data set the target is PARP2 (Homo sapiens, UniProt Q9UGN5). The data set is described as follows: PARP2-FL displacement assay. The data set is classed as binding. The following applies: 20 nM PARP2, 3 nM PARPi-FL, 4 hours incubation, fluorescence polarization. The protocol:
A potent PARP inhibitor (PARPi-FL, Cat No. 6461, Tocris Bioscience) conjugated to BDY FL fluorophore was adopted to characterize the activity of PARP2 by measuring the displacement of binding of PARPi-FL to PARP2. Compounds to be tested were prepared at a concentration of 1-10 mM, and made a 3-fold serial dilution by 100% DMSO in a polypropylene plate (Bio-One small volume microplate, black, Cat No. 784076, Greiner). 100 nL of test compounds were dispensed into a 384-well polypropylene microplate and added 10 μL of reaction solution including premixed 20 nM PARP2 and 3 nM PARPi-FL. After 4 hours of incubation at room temperature, the fluorescence polarization signal at 480/30 nm excitation and 530/30 nm dual emission was measured by VICTOR Nivo® multimode plate reader (PerkinElmer). All of the measured IC50 values were calculated using four parameters dose-response inhibition model in GraphPad Prism 8.0.2 (La Jolla, California, USA, www.graphpad.com).

A short description of data set [1]: Tumor/plasma ratio study in MDA-MB-436 tumor-bearing mouse. The following applies: female NOD-SCID mice with MDA-MB-436 tumors, dosed 28 days; for concentration at 24 h: LC-MS/MS; for Kp at 24 h: tumor/plasma, 24 hours after the last dose. The class given is in vivo. As to the method:
1×10^7 MDA-MB-436 cells were implanted subcutaneously onto the flank of female NOD-SCID mice (aged 6-8 weeks weighing approximately 18-22 g). When tumors reached approximately 150-180 mm3, the mice were randomly assigned to treatment groups. The mice were continuously dosed with the Compounds for 28 days. On day 29, blood (50 μL) and tumor tissue samples were collected at 24 hours after the last dose. The collected blood samples were then centrifuged at 4600 rpm for 5 minutes at 4° C. to obtain plasma. To determine compound levels in plasma samples, each plasma sample was prepared using an appropriate dilution factor and compared against an 11-point standard calibration curve (1-5,000 ng/mL) prepared in DMSO and spiked into blank plasma. Acetonitrile (200 μL) was added with internal standard into 20 μL plasma samples, followed by centrifugation at 5,500 rpm for 10 minutes. Supernatant (150 μL) was then diluted in water (150 μL) and analyzed via LC-MS/MS. Tumor tissue samples were weighed, and then homogenized with 80% methanol at a ratio of 1:5 or 1:10 (tumor weight in grams to methanol volume in milliliters). Acetonitrile (300 μL) was added with internal standard into 30 μL tumor homogenates sample. The samples were vortexed for 30 s and then centrifuged at 5,500 rpm for 10 min at 4° C. The supernatant (150 μL) was transferred to 96-well plate and diluted with water (150 μL) and analyzed via LC-MS/MS. If a sample concentration in initial assay was not covered in the range of a given standard curve, proper dilution and concentration procedures were used in repeated testing.

Setting [2] is: tumor tissue 24 hours after the last dose, read-out: Tumor.
Setting [3] is: plasma, sample 24 hours after the last dose, read-out: Plasma.

Like-named read-outs stand apart in the source and are kept apart here.

PARP2, sequence (Q9UGN5 whole entry): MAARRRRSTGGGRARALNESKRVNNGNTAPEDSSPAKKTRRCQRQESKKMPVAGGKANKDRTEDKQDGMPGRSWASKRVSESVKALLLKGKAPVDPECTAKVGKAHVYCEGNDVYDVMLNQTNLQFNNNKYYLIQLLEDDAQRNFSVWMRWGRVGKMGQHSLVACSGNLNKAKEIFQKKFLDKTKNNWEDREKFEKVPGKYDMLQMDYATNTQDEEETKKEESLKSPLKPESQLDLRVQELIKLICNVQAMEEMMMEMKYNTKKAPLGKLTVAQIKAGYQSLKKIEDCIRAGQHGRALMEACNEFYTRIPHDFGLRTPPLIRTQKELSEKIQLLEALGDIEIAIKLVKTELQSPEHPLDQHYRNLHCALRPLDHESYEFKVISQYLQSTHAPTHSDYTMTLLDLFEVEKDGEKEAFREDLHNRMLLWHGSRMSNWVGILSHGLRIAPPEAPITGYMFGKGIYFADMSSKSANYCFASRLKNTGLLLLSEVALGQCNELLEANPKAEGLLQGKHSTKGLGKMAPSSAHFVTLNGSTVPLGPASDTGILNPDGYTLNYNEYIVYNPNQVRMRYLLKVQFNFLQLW

Consider `CNC(=O)c1ccc(N2C[C@H]3CN(Cc4cc5[nH]c(=O)c6c(c5cn4)CCC6)C[C@@H]3C2)c(F)n1` [Compound 54], for which the IC50 against PARP1 was determined as 6.44 nM; with MDA-MB-436 cells, 0.45 nM; with DLD1 BRCA2−/− cells, 0.54 nM; at PARP2 it was 7100 nM.

Consider `O=C(NC1COC1)c1ccc(N2C[C@H]3CN(Cc4ccc5c6c(c(=O)[nH]c5c4)CCC6)C[C@@H]3C2)c(F)n1` [Compound 87], for which the IC50 against PARP1 worked out at 5.73 nM; with MDA-MB-436 cells, 0.66 nM; with DLD1 BRCA2−/− cells, 0.62 nM; on PARP2 it was 1200 nM. Also, the figures for the concentration at 24 h in data set [1] (setting [2]) and in data set [1] (setting [3]) were 244 ng/g and 22 ng/mL, respectively. Further, the Kp at 24 h in data set [1] stood at 11.

In the case of `CNC(=O)c1ccc(N2C[C@H]3CN(Cc4cc5[nH]c(=O)c6c(c5cn4)COCC6)C[C@@H]3C2)c(F)n1` [Compound 80], the IC50 on PARP1 was 5.05 nM; in the data set with MDA-MB-436 cells, 0.84 nM; in the data set on DLD1 BRCA2−/− cells, 4.75 nM; on PARP2 it was 3880 nM.

Consider `O=C(NC1CC1)c1ccc(N2C[C@@H]3CN(Cc4cnc5c6c(c(=O)[nH]c5c4)COCC6)C[C@H]3C2)c(F)n1` (stereo in doubt) [Compound 72], for which the IC50 was 9.52 nM at PARP1, 0.35 nM with MDA-MB-436 cells, 2.11 nM in the data set with DLD1 BRCA2−/− cells and 832 nM at PARP2.

As to `O=C(NC1COC1)c1ccc(N2C[C@H]3CN(Cc4cnc5c6c(c(=O)[nH]c5c4)CCC6)C[C@@H]3C2)c(F)n1` [Compound 52], the IC50 at PARP1 stood at 7.41 nM; in the data set on MDA-MB-436 cells, 0.44 nM; in the data set on DLD1 BRCA2−/− cells, 1.44 nM; at PARP2, 3310 nM. The concentration at 24 h in data set [1] (setting [2]) is 121 ng/g; in data set [1] (setting [3]), 4.3 ng/mL. The Kp at 24 h in data set [1] came out at 28.

For the molecule `CCNC(=O)c1ccc(N2C[C@H]3CN(Cc4cnc5c6c(c(=O)[nH]c5c4)COCC6)C[C@@H]3C2)c(F)n1` [Compound 76], the IC50 on PARP1 is 5.3 nM; in the data set on MDA-MB-436 cells, 0.5 nM; in the data set with DLD1 BRCA2−/− cells, 0.7 nM; on PARP2 it was 574 nM.

As for `CNC(=O)c1ccc(N2C[C@@H]3CN(Cc4cnc5c(c4)[nH]c(=O)c4cccn45)C[C@H]3C2)cn1` (racemic) [Compound 4], the IC50 amounted to 7.93 nM at PARP1, 0.9 nM in the data set with MDA-MB-436 cells, 0.58 nM in the data set on DLD1 BRCA2−/− cells and 925 nM at PARP2.

In the case of `COCCNC(=O)c1ccc(N2C[C@H]3CN(Cc4cnc5c6c(c(=O)[nH]c5c4)CCC6)C[C@@H]3C2)c(F)n1` [Compound 49], the IC50 against PARP1 was determined as 9.61 nM; in the data set with MDA-MB-436 cells it was 1.03 nM; in the data set with DLD1 BRCA2−/− cells, 2.16 nM; on PARP2, 2110 nM.

Regarding `CNC(=O)c1ccc(N2C[C@H]3CN(Cc4ccc5c6c(c(=O)[nH]c5c4)COC6)C[C@@H]3C2)c(F)n1` [Compound 60], the IC50 was 8.17 nM against PARP1, 1.04 nM with MDA-MB-436 cells, 1.6 nM with DLD1 BRCA2−/− cells and 2470 nM at PARP2.

With `O=C(NC1COC1)c1ccc(N2C[C@H]3CN(Cc4cnc5c6c(c(=O)[nH]c5c4)CCCC6)C[C@@H]3C2)c(F)n1` [Compound 83], the IC50 against PARP1 amounted to 7.66 nM; in the data set with MDA-MB-436 cells, 0.54 nM; in the data set with DLD1 BRCA2−/− cells it was 0.54 nM; on PARP2, 147 nM.

In the case of `O=C(N[C@H]1CCOC1)c1ccc(N2C[C@H]3CN(Cc4ccc5c6c(c(=O)[nH]c5c4)COCC6)C[C@@H]3C2)c(F)n1` [Compound 85], the IC50 stood at 8.15 nM against PARP1, 1.05 nM in the data set with MDA-MB-436 cells, 1.1 nM with DLD1 BRCA2−/− cells and 811 nM on PARP2.

In the case of `CNC(=O)c1ccc(N2C[C@H]3CN(Cc4ccc5c6c(c(=O)[nH]c5c4)COCC6)C[C@@H]3C2)c(F)n1` [Compound 66], the IC50 against PARP1 came out at 4.87 nM; in the data set on MDA-MB-436 cells, 0.12 nM; in the data set on DLD1 BRCA2−/− cells, 0.52 nM; at PARP2 it was 219 nM.

Consider `CCc1cc2ncc(CN3C[C@@H]4CN(c5ccc(C(=O)NC)nc5)C[C@H]4C3)cc2[nH]c1=O` [Compound 15], for which the IC50 came out at 6.25 nM on PARP1, 0.37 nM with MDA-MB-436 cells, 0.33 nM in the data set on DLD1 BRCA2−/− cells and 1270 nM on PARP2.

On to `O=C(N[C@@H]1CCOC1)c1ccc(N2C[C@H]3CN(Cc4ccc5c6c(c(=O)[nH]c5c4)COCC6)C[C@@H]3C2)c(F)n1` [Compound 86], for which the IC50 was 11.7 nM against PARP1, 2.25 nM in the data set on MDA-MB-436 cells, 1.37 nM with DLD1 BRCA2−/− cells and 2370 nM on PARP2.

Consider `CNC(=O)c1ccc(N2C[C@H]3CN(Cc4ccc5c6c(c(=O)[nH]c5c4)COCC6)C[C@@H]3C2)cn1` [Compound 65], for which the IC50 came to 6.22 nM on PARP1, 0.36 nM in the data set with MDA-MB-436 cells, 0.63 nM in the data set with DLD1 BRCA2−/− cells and 334 nM at PARP2.

For `CO[C@H]1C[C@@H](NC(=O)c2ccc(N3C[C@H]4CN(Cc5ccc6c7c(c(=O)[nH]c6c5)COCC7)C[C@@H]4C3)c(F)n2)C1` [Compound 70], the IC50 against PARP1 was determined as 4.2 nM; in the data set on MDA-MB-436 cells, 0.39 nM; in the data set on DLD1 BRCA2−/− cells it was 0.7 nM; on PARP2, 614 nM.

As to `CO[C@H]1C[C@@H](NC(=O)c2ccc(N3C[C@H]4CN(Cc5cnc6c7c(c(=O)[nH]c6c5)COCC7)C[C@@H]4C3)c(F)n2)C1` [Compound 73], the IC50 at PARP1 worked out at 8.29 nM; in the data set with MDA-MB-436 cells, 0.27 nM; with DLD1 BRCA2−/− cells, 1.09 nM; on PARP2, 1040 nM. Further, the concentration at 24 h was determined as 206 ng/g in data set [1] (setting [2]) and 3.2 ng/mL in data set [1] (setting [3]). The Kp at 24 h in data set [1] was determined as 64.

In the case of `CCc1cc2ncc(CN3C[C@@H]4CN(c5ccc(C(=O)NC)nc5F)C[C@H]4C3)cc2[nH]c1=O` [Compound 27], the IC50 on PARP1 is 7.52 nM; in the data set on MDA-MB-436 cells it was 0.23 nM; in the data set on DLD1 BRCA2−/− cells, 0.22 nM; at PARP2, 1100 nM.

Take `COCCNC(=O)c1ccc(N2C[C@H]3CN(Cc4cnc5c(c4)[nH]c(=O)c4cccn45)C[C@@H]3C2)cn1` [Compound 46]: the IC50 on PARP1 came out at 8.21 nM; in the data set on MDA-MB-436 cells, 1.66 nM; in the data set on DLD1 BRCA2−/− cells it was 3.01 nM; on PARP2, 2440 nM.

As for `CCc1cc2ncc(CN3CCN(c4ccc(C(=O)NC)nc4)CC3)cc2[nH]c1=O` [AZD5305, reference compound], the concentration at 24 h is 249 ng/g in data set [1] (setting [2]) and 584 ng/mL in data set [1] (setting [3]). Also, the Kp at 24 h in data set [1] was 0.4.
